# Key:
# [1] = molecular target: EBOV NP (amino acids 36–351) (Zaire ebolavirus, UniProt P18272); assay type: binding, Ebola virus
# [2] = molecular target: MARV NP (amino acids 19–370) (Lake Victoria marburgvirus, UniProt P27588); assay type: binding, Marburg virus
# Sequence of MARV NP (amino acids 19–370) (P27588 19-370 limits assumed): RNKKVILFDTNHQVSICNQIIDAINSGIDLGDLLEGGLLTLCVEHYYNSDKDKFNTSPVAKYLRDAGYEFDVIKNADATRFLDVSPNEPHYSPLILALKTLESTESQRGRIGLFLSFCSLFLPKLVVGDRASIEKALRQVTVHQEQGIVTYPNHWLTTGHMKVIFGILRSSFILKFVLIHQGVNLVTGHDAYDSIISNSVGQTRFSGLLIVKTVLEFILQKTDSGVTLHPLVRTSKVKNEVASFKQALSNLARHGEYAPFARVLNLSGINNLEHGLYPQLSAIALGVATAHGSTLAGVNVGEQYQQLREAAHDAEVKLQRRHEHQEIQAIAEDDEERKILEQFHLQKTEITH
# Sequence of EBOV NP (amino acids 36–351) (P18272 36-351 limits assumed): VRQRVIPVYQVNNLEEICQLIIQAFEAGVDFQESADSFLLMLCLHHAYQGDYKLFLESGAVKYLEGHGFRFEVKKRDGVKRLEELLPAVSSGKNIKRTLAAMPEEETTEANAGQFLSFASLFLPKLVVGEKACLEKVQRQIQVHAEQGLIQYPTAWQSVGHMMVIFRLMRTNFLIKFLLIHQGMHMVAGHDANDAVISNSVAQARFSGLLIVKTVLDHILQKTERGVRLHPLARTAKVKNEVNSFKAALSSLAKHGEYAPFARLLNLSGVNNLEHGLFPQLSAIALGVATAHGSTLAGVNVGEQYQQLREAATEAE
Compound,S/N AVE [1],VIP [1],S/N AVE [2],VIP [2],putative ligand in licorice crude extract screen [1],putative ligand in licorice crude extract screen [2]
"O=c1cc(-c2ccc(O)cc2)oc2c([C@@H]3OC[C@H](O)[C@H](O)[C@H]3O)c(O)c([C@@H]3O[C@H](CO)[C@@H](O)[C@H](O)[C@H]3O)c(O)c12 [GC3, Schaftoside]",1.11,0.60,1.62,1.60,,
"O=C(/C=C/c1ccc(O)cc1)c1ccc(O[C@@H]2O[C@H](CO)[C@@H](O)[C@H](O)[C@H]2O)cc1O [GC4, Neoisoliquiritin]",1.58,1.18,1.72,1.31,,
"COc1ccc(-c2coc3cc(O[C@@H]4O[C@H](CO)[C@@H](O)[C@H](O)[C@H]4O)ccc3c2=O)cc1 [GC5, Ononin]",1.46,1.09,1.76,1.28,,
"CC1(C)[C@@H](O[C@H]2O[C@H](C(=O)O)[C@@H](O)[C@H](O)[C@H]2O[C@@H]2O[C@H](C(=O)O)[C@@H](O)[C@H](O)[C@H]2O)CC[C@]2(C)[C@H]3C(=O)C=C4[C@@H]5C[C@@](C)(C(=O)O)CC[C@]5(C)CC[C@@]4(C)[C@]3(C)CC[C@@H]12 [GC6, Glycyrrhizin]",1.15,5.23,0.96,1.39,did not observe its direct binding,did not observe its direct binding
"O=C1C[C@@H](c2ccc(O)cc2)Oc2cc(O)ccc21 [GC8, Liquiritigenin]",1.04,0.47,1.50,0.65,,
"COc1ccc(-c2coc3cc(O)ccc3c2=O)cc1O [GC9, Calycosin]",1.01,0.14,1.36,0.16,,
"C=CC(C)(C)c1cc(/C=C/C(=O)c2ccc(O)cc2)c(OC)cc1O [GC13, Licochalcone A]",5.17,2.27,6.85,2.03,met the aforementioned thresholds,met the aforementioned thresholds
"O=C(/C=C/c1ccc(O[C@@H]2O[C@H](CO)[C@@H](O)[C@H](O)[C@H]2O)cc1)c1ccc(O)cc1O [GC14, Isoliquiritin]",1.22,1.29,1.73,2.12,,
glycyrrhetinic acid [GC7/10],,1.44,,,met the aforementioned thresholds,met the aforementioned thresholds
